US9926282B2, “Phthalazinones and isoquinolinones as rock inhibitors” (BRISTOL-MYERS SQUIBB COMPANY, priority 2013, dated 2018)

Key:
ROCK1 = ROCK1 (Homo sapiens (Human), UniProt Q13464); assay: ROCK assay (LABCHIP peptide phosphorylation), ROCK1; assay type: biochemical; settings: 5 μM ATP, 1.5 μM peptide substrate; read-out: ROCK1 IC50
ROCK2 = ROCK2 (Homo sapiens (Human), UniProt O75116); assay: ROCK assay (LABCHIP peptide phosphorylation), ROCK2; assay type: biochemical; settings: 5 μM ATP, 1.5 μM peptide substrate
Sequence of ROCK2 (O75116 whole entry, species assumed): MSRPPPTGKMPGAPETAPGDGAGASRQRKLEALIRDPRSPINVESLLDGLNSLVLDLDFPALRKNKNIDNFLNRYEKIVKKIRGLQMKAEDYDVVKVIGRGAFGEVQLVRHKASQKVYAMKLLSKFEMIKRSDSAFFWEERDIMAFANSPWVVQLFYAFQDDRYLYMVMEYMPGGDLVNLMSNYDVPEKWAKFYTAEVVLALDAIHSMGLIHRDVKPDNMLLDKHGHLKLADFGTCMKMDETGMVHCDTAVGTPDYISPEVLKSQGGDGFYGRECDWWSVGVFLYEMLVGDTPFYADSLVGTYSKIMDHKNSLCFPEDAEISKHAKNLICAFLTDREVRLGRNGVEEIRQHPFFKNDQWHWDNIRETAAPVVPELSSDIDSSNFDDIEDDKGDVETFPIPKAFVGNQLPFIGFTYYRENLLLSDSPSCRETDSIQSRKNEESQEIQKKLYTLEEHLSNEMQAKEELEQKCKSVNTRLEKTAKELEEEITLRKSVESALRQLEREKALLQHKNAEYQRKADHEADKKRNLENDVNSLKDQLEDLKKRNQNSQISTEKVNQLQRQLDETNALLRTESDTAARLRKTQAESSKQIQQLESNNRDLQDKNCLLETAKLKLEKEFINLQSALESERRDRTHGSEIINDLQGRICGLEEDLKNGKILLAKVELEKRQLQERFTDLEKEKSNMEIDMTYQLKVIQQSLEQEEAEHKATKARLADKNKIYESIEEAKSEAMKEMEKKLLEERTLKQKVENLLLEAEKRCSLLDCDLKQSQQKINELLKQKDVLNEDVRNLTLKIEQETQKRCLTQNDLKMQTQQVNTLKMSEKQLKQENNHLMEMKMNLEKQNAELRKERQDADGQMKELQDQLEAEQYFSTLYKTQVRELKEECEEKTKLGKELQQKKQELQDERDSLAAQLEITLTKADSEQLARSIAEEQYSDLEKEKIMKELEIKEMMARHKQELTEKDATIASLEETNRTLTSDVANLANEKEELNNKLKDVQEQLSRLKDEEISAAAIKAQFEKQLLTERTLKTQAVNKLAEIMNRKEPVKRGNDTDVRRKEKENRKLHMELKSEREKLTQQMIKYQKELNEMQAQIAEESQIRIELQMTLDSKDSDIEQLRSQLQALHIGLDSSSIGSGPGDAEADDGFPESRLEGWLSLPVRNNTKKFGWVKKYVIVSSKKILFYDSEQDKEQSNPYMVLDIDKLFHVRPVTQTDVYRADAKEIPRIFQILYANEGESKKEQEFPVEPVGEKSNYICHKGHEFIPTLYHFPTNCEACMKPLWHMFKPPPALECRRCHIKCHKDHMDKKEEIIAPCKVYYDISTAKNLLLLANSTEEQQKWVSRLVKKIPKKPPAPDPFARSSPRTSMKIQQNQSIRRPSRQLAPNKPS

Sequence of ROCK1 (Q13464 whole entry, species assumed): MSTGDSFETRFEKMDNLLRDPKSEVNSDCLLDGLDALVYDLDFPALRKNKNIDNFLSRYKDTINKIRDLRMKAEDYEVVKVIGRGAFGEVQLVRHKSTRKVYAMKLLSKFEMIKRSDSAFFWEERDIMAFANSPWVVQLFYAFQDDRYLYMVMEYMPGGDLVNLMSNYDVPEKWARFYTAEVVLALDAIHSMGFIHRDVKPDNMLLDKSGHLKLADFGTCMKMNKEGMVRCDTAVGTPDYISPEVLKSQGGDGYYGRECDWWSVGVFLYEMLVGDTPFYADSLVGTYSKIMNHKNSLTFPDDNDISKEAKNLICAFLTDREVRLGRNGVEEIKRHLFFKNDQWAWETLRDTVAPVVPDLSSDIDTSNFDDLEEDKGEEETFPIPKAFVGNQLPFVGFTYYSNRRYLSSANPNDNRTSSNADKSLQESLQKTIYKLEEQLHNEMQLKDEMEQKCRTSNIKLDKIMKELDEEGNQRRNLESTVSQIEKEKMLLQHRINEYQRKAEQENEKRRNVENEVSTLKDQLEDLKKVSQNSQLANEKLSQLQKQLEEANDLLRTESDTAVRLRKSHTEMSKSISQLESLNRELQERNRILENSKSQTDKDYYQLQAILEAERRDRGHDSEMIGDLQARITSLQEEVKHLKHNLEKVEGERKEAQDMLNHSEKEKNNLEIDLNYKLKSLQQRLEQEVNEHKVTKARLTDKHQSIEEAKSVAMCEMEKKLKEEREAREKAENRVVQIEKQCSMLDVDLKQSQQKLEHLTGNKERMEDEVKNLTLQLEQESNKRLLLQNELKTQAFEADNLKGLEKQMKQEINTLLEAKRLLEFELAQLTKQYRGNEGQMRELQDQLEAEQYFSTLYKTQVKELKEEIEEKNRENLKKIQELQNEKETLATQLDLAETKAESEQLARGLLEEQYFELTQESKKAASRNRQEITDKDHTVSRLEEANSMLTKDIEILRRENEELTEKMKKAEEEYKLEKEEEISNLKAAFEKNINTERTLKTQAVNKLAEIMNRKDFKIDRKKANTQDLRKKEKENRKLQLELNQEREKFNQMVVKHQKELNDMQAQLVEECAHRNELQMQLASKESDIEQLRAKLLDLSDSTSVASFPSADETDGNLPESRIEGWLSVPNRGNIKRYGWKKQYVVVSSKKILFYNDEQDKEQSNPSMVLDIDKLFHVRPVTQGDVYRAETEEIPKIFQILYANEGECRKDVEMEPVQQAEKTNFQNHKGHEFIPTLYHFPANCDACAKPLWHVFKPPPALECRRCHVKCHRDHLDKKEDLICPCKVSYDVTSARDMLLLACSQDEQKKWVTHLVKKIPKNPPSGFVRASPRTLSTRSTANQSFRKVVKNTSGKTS

IC50 (ROCK1) [nM]	IC50 (ROCK2) [nM]	IC50 (ROCK2; given as number) [nM]	Compound
101 to 1000	0.1 to 100		O=C(Nc1ccc(-c2n[nH]c(=O)c3ccccc23)cc1)c1ccnn1-c1ccccc1 [Example 236, N-[4-(4-oxo-3,4-dihydrophthalazin-1-yl)phenyl]-1-phenyl-1H-pyrazole-5-carboxamide]
101 to 1000	0.1 to 100		O=C(Cc1ccc(-c2n[nH]c(=O)c3ccccc23)cc1)N1CCc2ccccc21 [Example 23, 4-{4-[2-(2,3-dihydro-1H-indol-1-yl)-2-oxoethyl]phenyl}-1,2-dihydrophthalazin-1-one]
0.1 to 100	0.1 to 100		CN(C)c1ccc2cc(C(=O)Nc3ccc(-c4n[nH]c(=O)c5ccccc45)cc3)[nH]c2c1 [Example 94, 6-(dimethylamino)-N-[4-(4-oxo-3,4-dihydrophthalazin-1-yl)phenyl]-1H-indole-2-carboxamide]
0.1 to 100	0.1 to 100		O=C(Cc1ccc(-c2n[nH]c(=O)c3ccccc23)cc1)N1CCc2ccc(OCc3ccccn3)cc21 [Example 271, 4-(4-{2-oxo-2-[6-(pyridin-2-ylmethoxy)-2,3-dihydro-1H-indol-1-yl]ethyl}phenyl)-1,2-dihydrophthalazin-1-one]
1000 to 50000		222	O=C(Nc1ccc(-c2n[nH]c(=O)c3ccccc23)c(CO)c1)c1cnc2ccccn12 [Example 365, N-(3-(Hydroxymethyl)-4-(4-oxo-3,4-dihydrophthalazin-1-yl)phenyl)imidazo[1,2-a]pyridine-3-carboxamide]
0.1 to 100	0.1 to 100		COc1ccc2c(c1)N(C(=O)Nc1ccc(-c3c[nH]c(=O)c4ccccc34)cc1)CC2 [Example 80, 6-Methoxy-N-(4-(1-oxo-1,2-dihydroisoquinolin-4-yl)phenyl)indoline-1-carboxamide]
0.1 to 100	0.1 to 100		COc1ccc(-n2nnc(C(=O)Nc3ccc(-c4n[nH]c(=O)c5ccccc45)cc3)c2C)cc1 [Example 401, 1-(4-Methoxyphenyl)-5-methyl-N-(4-(4-oxo-3,4-dihydrophthalazin-1-yl)phenyl)-1H-1,2,3-triazole-4-carboxamide]
0.1 to 100	0.1 to 100		Cc1ccc2[nH]c(C(=O)Nc3ccc(-c4n[nH]c(=O)c5ccccc45)cc3)cc2c1 [Example 101, 5-methyl-N-[4-(4-oxo-3,4-dihydrophthalazin-1-yl)phenyl]-1H-indole-2-carboxamide]
0.1 to 100	0.1 to 100		Cc1c(C(=O)Nc2ccc(-c3n[nH]c(=O)c4ccccc34)cc2)cnn1-c1cccc(Cl)c1F [Example 202, 1-(3-chloro-2-fluorophenyl)-5-methyl-N-[4-(4-oxo-3,4-dihydrophthalazin-1-yl)phenyl]-1H-pyrazole-4-carboxamide]
1000 to 50000	101 to 1000		O=C(Cc1ccc(-c2n[nH]c(=O)c3ccccc23)cc1)Nc1nccs1 [Example 28, 2-[4-(4-oxo-3,4-dihydrophthalazin-1-yl)phenyl]-N-(1,3-thiazol-2-yl)acetamide]
101 to 1000	0.1 to 100		Cc1c(C(=O)Nc2ccc(-c3n[nH]c(=O)c4ccccc34)cc2)nnn1-c1cccc(C(F)(F)F)c1 [Example 232, 5-methyl-N-[4-(4-oxo-3,4-dihydrophthalazin-1-yl)phenyl]-1-[3-(trifluoromethyl)phenyl]-1H-1,2,3-triazole-4-carboxamide]
1000 to 50000	101 to 1000		CC(C)N1CC(C(=O)Nc2ccc(-c3n[nH]c(=O)c4ccccc34)cc2)CC1=O (stereo not drawn) [Example 218, 5-oxo-N-[4-(4-oxo-3,4-dihydrophthalazin-1-yl)phenyl]-1-(propan-2-yl)pyrrolidine-3-carboxamide]
0.1 to 100	0.1 to 100		O=C(Nc1ccc(-c2n[nH]c(=O)c3ccccc23)c(Cl)c1)c1cnc2ccccn12 [Example 317, N-[3-chloro-4-(4-oxo-3,4-dihydrophthalazin-1-yl)phenyl]imidazo[1,2-a] pyridine-3-carboxamide]
0.1 to 100	0.1 to 100		COCCOc1ccn2ncc(C(=O)Nc3ccc(-c4n[nH]c(=O)c5ccccc45)cc3)c2c1 [Example 184, 5-(2-methoxyethoxy)-N-[4-(4-oxo-3,4-dihydrophthalazin-1-yl)phenyl]pyrazolo[1,5-a]pyridine-3-carboxamide]
0.1 to 100	0.1 to 100		COc1cccc2cc(C(=O)Nc3ccc(-c4n[nH]c(=O)c5ccccc45)cc3)[nH]c12 [Example 129, 7-methoxy-N-[4-(4-oxo-3,4-dihydrophthalazin-1-yl)phenyl]-1H-indole-2-carboxamide]
101 to 1000	0.1 to 100		COc1ccc(C#N)c(-n2cnc(C(=O)Nc3ccc(-c4n[nH]c(=O)c5ccccc45)cc3)n2)c1 [Example 239, 1-(2-cyano-5-methoxyphenyl)-N-[4-(4-oxo-3,4-dihydrophthalazin-1-yl)phenyl]-1H-1,2,4-triazole-3-carboxamide]
0.1 to 100	0.1 to 100		O=C(Nc1ccc(-c2c[nH]c(=O)c3ccccc23)cc1)c1nc2c(s1)CCCC2 [Example 246, N-(4-(1-Oxo-1,2-dihydroisoquinolin-4-yl)phenyl)-4,5,6,7-tetrahydrobenzo[d]thiazole-2-carboxamide]
101 to 1000	0.1 to 100		CN1CC[C@@H](Oc2ccc3c(c2)N(C(=O)Cc2ccc(-c4n[nH]c(=O)c5ccccc45)cc2)CC3)C1 [Example 277, 4-{4-[2-(6-{[(3R)-1-methylpyrrolidin-3-yl]oxy}-2,3-dihydro-1H-indol-1-yl)-2-oxoethyl]phenyl}-1,2-dihydrophthalazin-1-one]
0.1 to 100	0.1 to 100		O=C(Nc1ccc(-c2n[nH]c(=O)c3ccccc23)cc1)c1cnn([C@H]2C[C@@H]3CC[C@H]2C3)c1 [Example 393, 1-((1S,2S,4R)-Bicyclo[2.2.1]heptan-2-yl)-N-(4-(4-oxo-3,4-dihydrophthalazin-1-yl)phenyl)-1H-pyrazole-4-carboxamide]
101 to 1000	0.1 to 100		Cn1c(C(=O)Nc2ccc(-c3n[nH]c(=O)c4ccccc34)cc2)cc2cc(Cl)ccc21 [Example 96, 5-chloro-1-methyl-N-[4-(4-oxo-3,4-dihydrophthalazin-1-yl)phenyl]-1H-indole-2-carboxamide]
0.1 to 100	0.1 to 100		COc1ccccc1-n1cc(C(=O)Nc2ccc(-c3n[nH]c(=O)c4ccccc34)cc2)cn1 [Example 197, 1-(2-methoxyphenyl)-N-[4-(4-oxo-3,4-dihydrophthalazin-1-yl)phenyl]-1H-pyrazole-4-carboxamide]
1000 to 50000	0.1 to 100		O=C(Nc1ccc(-c2n[nH]c(=O)c3ccccc23)cc1)c1cc2ccccc2n1Cc1ccccc1 [Example 136, 1-benzyl-N-[4-(4-oxo-3,4-dihydrophthalazin-1-yl)phenyl]-1H-indole-2-carboxamide]

Compound	IC50 (ROCK1) [nM]	IC50 (ROCK2) [nM]	IC50 (ROCK2; given as number) [nM]
CN(C)c1ccc(C(=O)Nc2ccc3c(c2)N(C(=O)Cc2ccc(-c4n[nH]c(=O)c5ccccc45)cc2)CC3)cc1 [Example 300, 4-(Dimethylamino)-N-(1-(2-(4-(4-oxo-3,4-dihydrophthalazin-1-yl)phenyl)acetyl)indolin-6-yl)benzamide]	0.1 to 100	0.1 to 100	
O=C(Nc1ccc(-c2n[nH]c(=O)c3ccccc23)cc1)c1nn(CC2CCOCC2)c2ccccc12 [Example 150, 1-(oxan-4-ylmethyl)-N-[4-(4-oxo-3,4-dihydrophthalazin-1-yl)phenyl]-1H-indazole-3-carboxamide]	0.1 to 100	0.1 to 100	
CC(C(=O)N1Cc2ccccc2C1)c1ccc(-c2n[nH]c(=O)c3ccccc23)cc1 (stereo not drawn) [Example 43, 4-(4-(1-(Isoindolin-2-yl)-1-oxopropan-2-yl)phenyl)phthalazin-1(2H)-one]	1000 to 50000	101 to 1000	
Cc1cc(NC(=O)c2nn(CC3CCN(C(=O)OCc4ccccc4)CC3)c3ccccc23)ccc1-c1n[nH]c(=O)c2ccccc12 [Example 307, benzyl 4-[(3-{[3-methyl-4-(4-oxo-3,4-dihydrophthalazin-1-yl)phenyl]carbamoyl}-1H-indazol-1-yl)methyl] piperidine-1-carboxylate]	101 to 1000	0.1 to 100	
O=c1[nH]nc(-c2ccc(Nc3nc(-c4ccccc4)cs3)cc2)c2ccccc12 [Example 74, 4-(4-((4-Phenylthiazol-2-yl)amino)phenyl)phthalazin-1(2H)-one]	1000 to 50000	0.1 to 100	
O=C(Nc1ccc(-c2n[nH]c(=O)c3ccccc23)cc1)c1nn(Cc2ccccc2)c2ccccc12 [Example 99, 1-benzyl-N-[4-(4-oxo-3,4-dihydrophthalazin-1-yl)phenyl]-1H-indazole-3-carboxamide]	0.1 to 100	0.1 to 100	
COc1ccc2c(-c3ccc(NC(=O)c4nn(CC(C)(C)O)c5ccccc45)cc3)n[nH]c(=O)c2c1 [Example 369, 1-(2-Hydroxy-2-methylpropyl)-N-(4-(6-methoxy-4-oxo-3,4-dihydrophthalazin-1-yl)phenyl)-1H-indazole-3-carboxamide]	101 to 1000	0.1 to 100	
O=C(Cc1ccc(-c2n[nH]c(=O)c3ccccc23)cc1)N1CCc2ccc(OCc3ccccc3)cc21 [Example 83, 4-(4-(2-(6-(Benzyloxy)indolin-1-yl)-2-oxoethyl)phenyl)phthalazin-1(2H)-one]	0.1 to 100	0.1 to 100	
O=C(Nc1ccc(-c2n[nH]c(=O)c3ccccc23)cc1)c1nn(Cc2ccncc2)c2ccccc12 [Example 165, N-[4-(4-oxo-3,4-dihydrophthalazin-1-yl)phenyl]-1-(pyridin-4-ylmethyl)-1H-indazole-3-carboxamide]	0.1 to 100	0.1 to 100	
COC(=O)N1CC(Cn2nc(C(=O)Nc3ccc(-c4n[nH]c(=O)c5ccccc45)cc3)c3ccccc32)C1 [Example 341, Methyl 3-((3-((4-(4-oxo-3,4-dihydrophthalazin-1-yl)phenyl)carbamoyl)-1H-indazol-1-yl)methyl)azetidine-1-carboxylate]	0.1 to 100	0.1 to 100	
O=C(Nc1ccc(-c2c[nH]c(=O)c3ccccc23)cc1)N1CCc2ccccc21 [Example 77, N-(4-(1-Oxo-1,2-dihydroisoquinolin-4-yl)phenyl)indoline-1-carboxamide]	0.1 to 100	0.1 to 100	
